Assay in all cases: inhibition of tumour cell growth, NCI panel, 48 h
Test [1] deals with UACC-257 melanoma.
Test [2] deals with SNB-19 CNS.
Test [3] concerns A549 NSCLC.
For test [4], the system named is HT29 colon.
The test system of test [5] is HCC-2998 colon.
The test system of test [6] is NCI-H460 lung.
Test [7] has as its system NCI-H226 lung.
For test [8], the system named is U251 CNS.
Test [9] deals with MDA-MB-435.
In test [10] the test system is SNB-75 CNS.

Several values for one entry are separate records, joined by “and”; a condition that tells them apart may be missing. Equal entries are not always repeated.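 Each compound was tested at five concentrations against cells in 96-well plates for 48 hours. GI50 = concentration required for 50% inhibition of growth. TGI: concentration producing complete growth inhibition.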

Take `CCCCCCNC(=O)c1nc(-c2ccccc2)oc1Cc1ccc(OP(=O)(O)O)cc1`: the GI50 in test [1] is 17.6 µM; in test [2], 22 µM; in [3], 18 µM; in [4], 19.5 µM; in test [5], 18.2 µM; in test [6], 20.2 µM. Also, the GI50 in test [7] is 17 µM; in test [8] it was 15.7 µM; in [9], 16.4 µM; in test [10], 13.1 µM. In addition, the TGI in [1] is 35.6 µM; in [2] it was greater than 100 µM; in test [3], 36 µM; in test [4] it was 37.8 µM; in test [5], 33.4 µM; in test [6], 43 µM. Further, the TGI in test [7] was 33.5 µM; in [8] it was 29.9 µM; in test [9], 30.5 µM; in test [10], 29.2 µM.

Consider `C[C@H]1Oc2cc(cnc2N)-c2c(nn(C)c2C#N)CN(C)C(=O)c2ccc(F)cc21`, for which the GI50 is 25.8 µM in [1]; greater than 100 µM in test [2]; 25.4 µM in [3]; 5.76 µM in [4]; greater than 89 µM in test [5]; 28.2 µM in test [6]. The GI50 in test [7] was 40.8 µM; in test [8], greater than 100 µM; in test [9], 48.6 µM; in test [10], 21.7 µM. The TGI in test [1], in [2], in [3], in test [4], in [5] and in test [6] was greater than 100 µM in each case. Further, the TGI in [7], in test [8], in [9] and in test [10] was greater than 100 µM each time.

On to `CS(=O)(=O)CCCn1c(=O)c(Oc2ccc(F)cc2F)cc2cnc(NC3CCOCC3)nc21`, for which the GI50 in test [1], in test [2], in test [3], in test [4], in test [5] and in [6] was greater than 25 µM each time. Also, the GI50 in test [7], in [8], in test [9] and in test [10] was greater than 25 µM each time. Moreover, the TGI in [1], in [2], in test [3], in [4], in test [5] and in test [6] was greater than 25 µM each time. In addition, the TGI in test [7], in test [8], in test [9] and in [10] was greater than 25 µM each time.

`COc1ccncc1C#Cc1cncc(C(=O)Nc2ccc(CN3CCN(C)CC3)c(C(F)(F)F)c2)c1`: the GI50 is 21.5 µM in [1]; 47 µM in [2]; 27.4 µM in [3]; 9.33 µM in [4]; 24.8 µM in test [5]; 16.1 µM in [6]. Further, the GI50 in [7] is 4.6 µM; in [8], 35.6 µM; in test [9], 15 µM; in test [10] it was 25.9 µM. Moreover, the TGI in test [1] is greater than 100 µM; in test [2] it was greater than 100 µM; in test [3] it was greater than 100 µM; in test [4] it was greater than 100 µM; in test [5], greater than 100 µM; in test [6] it was 71 µM. For the same molecule, the TGI in test [7], in test [8], in test [9] and in [10] was greater than 100 µM throughout.

With `COc1ccc(-c2oc(=O)ccc2-c2cc(OC)c(OC)c(OC)c2)cc1F`, the GI50 in [1] was 31.5 µM; in test [2], 53.2 µM; in test [3], 9.91 µM; in test [4] it was 4.93 µM; in [5], 33.4 µM; in test [6], 5.43 µM. For the same molecule, the GI50 in test [7] was 66.4 µM; in test [8], 14.5 µM; in test [9], 2.13 µM; in test [10] it was 3.33 µM. The TGI in [1], in [2], in [3], in [4], in test [5] and in test [6] was greater than 100 µM each time. Also, the TGI in [7] is greater than 100 µM; in test [8], greater than 100 µM; in [9], 6.66 µM; in test [10], 36.4 µM.

Turning to `O=C(c1ccc(F)c(F)c1Nc1ccc(I)cc1F)N1CC(O)([C@@H]2CCCCN2)C1`, the GI50 in test [1] was < 0.01 µM and 0.00413 µM; in [2], 1.59 µM and 0.56 µM; in [3], 0.25 µM and 0.48 µM; in test [4] it was < 0.01 µM and 0.00367 µM; in test [5] it was < 0.015 µM and 0.0194 µM; in test [6], 2.92 µM and 2.42 µM. Besides, the GI50 in [7] was 1.91 µM and 1.24 µM; in test [8], 0.492 µM and 0.958 µM; in [9] it was < 0.01 µM and 0.00943 µM; in test [10], 2.85 µM and 0.574 µM. Besides, the TGI in [1] is 0.0368 µM and 0.0363 µM; in test [2], 21.1 µM and > 10 µM; in test [3], 17 µM and > 10 µM; in test [4] it was 11 µM and > 10 µM; in [5], 0.86 µM and 0.952 µM; in [6] it was 17.9 µM and > 10 µM. The TGI in test [7] is 23.3 µM and > 10 µM; in test [8], 17.9 µM and > 10 µM; in test [9], 15.1 µM and > 10 µM; in test [10] it was 16 µM and > 10 µM.

As to `Cc1nc2ccccc2nc1-c1ccc(N=[N+]([O-])c2ccc(-c3nc4ccccc4nc3C)cc2)cc1`, the TGI in [1], in test [2], in test [3], in test [4], in test [5] and in [6] was greater than 100 µM throughout. The TGI was greater than 100 µM in test [7], greater than 63.2 µM in [8], greater than 100 µM in test [9] and 46 µM in test [10].

`Nc1nc(N)c(N=Nc2ccc([As](=O)(O)O)cc2)c(=O)[nH]1`: the TGI in [1], in [2], in [3], in test [4], in test [5] and in [6] was greater than 100 µM each time. Moreover, the TGI in test [7], in test [8], in test [9] and in test [10] was greater than 100 µM in each case.
